Measurements published in PubChem BioAssay AID248 (DTP/NCI, 2004).
Several values for one entry are separate records, joined by “and”; a condition that tells them apart may be missing. Equal values may be shown once. Toxic doses and inconclusive results are not listed. No stated cut-off is given here; in the data, active means T/C of 150% or more; inactive means T/C below 125%.

Test system: L1210 leukemia ip in BDF1 mice, survival T/C
Test: NCI In Vivo Anticancer Drug Screen. Data for tumor model L1210 Leukemia (intraperitoneal) in B6D2F1 (BDF1) mice
Details: endpoint: mean survival time, higher = longer survival
How it was run: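 In this screen, tumor-bearing mice given compound are compared to those given vehicle, and their survival values are reported as a treated-to-control quotient.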

[1] = dose: 100.0 mg/kg/injection, schedule: Q01DX009 (ip), vehicle: saline with Tween-80
[2] = dose: 200.0 mg/kg/injection, schedule: Q01DX009 (ip), vehicle: saline with Tween-80
[3] = dose: 400.0 mg/kg/injection, schedule: Q01DX009 (ip), vehicle: saline with Tween-80
[4] = dose: 100.0 mg/kg/injection, schedule: Q01DX001 (ip), vehicle: carboxymethylcellulose (CMC)
[5] = dose: 200.0 mg/kg/injection, schedule: Q01DX001 (ip), vehicle: carboxymethylcellulose (CMC)
[6] = dose: 400.0 mg/kg/injection, schedule: Q01DX001 (ip), vehicle: carboxymethylcellulose (CMC)
[7] = dose: 50.0 mg/kg/injection, schedule: Q01DX001 (ip), vehicle: saline
[8] = dose: 100.0 mg/kg/injection, schedule: Q04DX003 (ip), vehicle: saline with Tween-80
[9] = dose: 200.0 mg/kg/injection, schedule: Q04DX003 (ip), vehicle: saline with Tween-80
[10] = dose: 400.0 mg/kg/injection, schedule: Q04DX003 (ip), vehicle: saline with Tween-80
[11] = dose: 25.0 mg/kg/injection, schedule: Q04DX003 (ip), vehicle: saline with Tween-80
[12] = dose: 100.0 mg/kg/injection, schedule: Q01DX001 (ip), vehicle: saline
[13] = dose: 100.0 mg/kg/injection, schedule: Q04DX003 (ip), vehicle: saline
[14] = dose: 200.0 mg/kg/injection, schedule: Q01DX001 (ip), vehicle: saline
[15] = dose: 200.0 mg/kg/injection, schedule: Q04DX003 (ip), vehicle: saline
[16] = dose: 400.0 mg/kg/injection, schedule: Q04DX003 (ip), vehicle: saline
[17] = dose: 50.0 mg/kg/injection, schedule: Q04DX003 (ip), vehicle: saline
[18] = dose: 100.0 mg/kg/injection, schedule: Q01DX009 (ip), vehicle: Klucel (hydroxypropylcellulose) (HPC)
[19] = dose: 200.0 mg/kg/injection, schedule: Q01DX009 (ip), vehicle: Klucel (hydroxypropylcellulose) (HPC)
[20] = dose: 400.0 mg/kg/injection, schedule: Q01DX009 (ip), vehicle: Klucel (hydroxypropylcellulose) (HPC)
[21] = dose: 100.0 mg/kg/injection, schedule: Q04DX003 (ip), vehicle: Klucel (hydroxypropylcellulose) (HPC)
[22] = dose: 200.0 mg/kg/injection, schedule: Q04DX003 (ip), vehicle: Klucel (hydroxypropylcellulose) (HPC)
[23] = dose: 400.0 mg/kg/injection, schedule: Q04DX003 (ip), vehicle: Klucel (hydroxypropylcellulose) (HPC)

Measured: T/C

O=S(=O)(NCCNS(=O)(=O)c1ccccc1)c1ccccc1
inactive: [1] 96 % of control | [2] 94 % of control | [3] 95 % of control

O=c1ssc(=Nc2ccccc2)n1-c1ccccc1
inactive: dose: 100.0 mg/kg/injection, schedule: Q04DX003 (ip), vehicle: gum acacia 103 % of control | dose: 200.0 mg/kg/injection, schedule: Q04DX003 (ip), vehicle: gum acacia 104 % of control | dose: 400.0 mg/kg/injection, schedule: Q04DX003 (ip), vehicle: gum acacia 101 % of control

O=S(Cc1ccc(Cl)cc1)C(Cl)(Cl)c1ccc(Cl)cc1 (centres undefined)
inactive: dose: 100.0 mg/kg/injection, schedule: Q04DX002 (ip), vehicle: Klucel (hydroxypropylcellulose) (HPC) 116 % of control | dose: 200.0 mg/kg/injection, schedule: Q04DX002 (ip), vehicle: Klucel (hydroxypropylcellulose) (HPC) 116 % of control | dose: 400.0 mg/kg/injection, schedule: Q04DX002 (ip), vehicle: Klucel (hydroxypropylcellulose) (HPC) 94 % of control

CCOC(=O)N(O)c1ccc(/C=C/c2ccccc2)cc1
inactive: [4] 98 % of control | [5] 93 % of control | [6] 98 % of control

C[N+](C)(C)/N=C/c1ccccc1
inactive: dose: 12.5 mg/kg/injection, schedule: Q01DX009 (ip), vehicle: Klucel (hydroxypropylcellulose) (HPC) 97 % of control | dose: 25.0 mg/kg/injection, schedule: Q01DX009 (ip), vehicle: Klucel (hydroxypropylcellulose) (HPC) 103 % of control | dose: 50.0 mg/kg/injection, schedule: Q01DX009 (ip), vehicle: Klucel (hydroxypropylcellulose) (HPC) 93 % of control and 96 % of control

Nc1ccc2cc3ccc(N)cc3nc2c1
inactive: [7] 120 % of control

CCCCCCCCCCCc1cc(=O)n(-c2cc(Cl)ccc2Cl)n1C
inactive: [8] 98 % of control

COc1cc(OC)c(OC)cc1/C=N/Nc1ccc(C(=O)O)cc1
inactive: [1] 95 % of control | [8] 96 % of control | [2] 97 % of control | [9] 94 % of control | [3] 101 % of control | [10] 98 % of control

c1ccc(CC(Cc2ccccc2)NC2=NCCO2)cc1
inactive: dose: 6.25 mg/kg/injection, schedule: Q01DX009 (ip), vehicle: saline with Tween-80 106 % of control | dose: 6.25 mg/kg/injection, schedule: Q04DX003 (ip), vehicle: saline with Tween-80 107 % of control | dose: 12.5 mg/kg/injection, schedule: Q01DX009 (ip), vehicle: saline with Tween-80 94 % of control | dose: 12.5 mg/kg/injection, schedule: Q04DX003 (ip), vehicle: saline with Tween-80 106 % of control | dose: 25.0 mg/kg/injection, schedule: Q01DX009 (ip), vehicle: saline with Tween-80 89 % of control | [11] 102 % of control

CC(=O)OC1CC2CCC1(S(=O)(=O)O)C2(C)C (centres undefined)
inactive: [12] 107 % of control | [13] 103 % of control | [14] 108 % of control | [15] 103 % of control | dose: 400.0 mg/kg/injection, schedule: Q01DX001 (ip), vehicle: saline 107 % of control | [16] 114 % of control

COC(=O)/C=C\C[P+](c1ccccc1)(c1ccccc1)c1ccccc1
inactive: dose: 12.5 mg/kg/injection, schedule: Q04DX003 (ip), vehicle: saline 103 % of control | dose: 25.0 mg/kg/injection, schedule: Q04DX003 (ip), vehicle: saline 97 % of control | [17] 100 % of control | [12] 101 % of control

CCOC(=O)C(O)C(Cl)(c1ccccc1)C(C)C (centres undefined)
inactive: dose: 100.0 mg/kg/injection, schedule: Q04DX002 (ip), vehicle: saline 100 % of control | dose: 200.0 mg/kg/injection, schedule: Q04DX002 (ip), vehicle: saline 114 % of control | dose: 400.0 mg/kg/injection, schedule: Q04DX002 (ip), vehicle: saline 111 % of control

C1=C2CC3(CCC2C(OCc2ccccc2)CC1)OCCO3 (centres undefined)
inactive: dose: 50.0 mg/kg/injection, schedule: Q01DX009 (ip), vehicle: saline with Tween-80 100 % of control | [1] 92 % of control | [2] 94 % of control

C=COC(=O)NC(CCSC)C(=O)O (centres undefined)
inactive: [7] 101 % of control | [12] 98 % of control

CC1(C(N)=O)CCC(C(=O)O)C1(C)C (centres undefined)
inactive: dose: 50.0 mg/kg/injection, schedule: Q01DX001 (ip), vehicle: carboxymethylcellulose (CMC) 103 % of control | [4] 109 % of control | [5] 103 % of control | [6] 103 % of control

COc1ccc(OC)c(NC(=O)c2ccc(Cl)cc2Cl)c1
inactive: [18] 95 % of control | [19] 93 % of control | [20] 95 % of control

Nc1ccc2c(c1)Cc1cc(Br)ccc1-2
inactive: [18] 103 % of control | [21] 96 % of control | [19] 101 % of control | [22] 102 % of control | [20] 101 % of control | [23] 108 % of control

CCNC(=O)CCP(=O)(CCC(=O)NCC)CCC(=O)NCC
inactive: dose: 50.0 mg/kg/injection, schedule: Q01DX009 (ip), vehicle: saline 94 % of control | [17] 101 % of control | dose: 100.0 mg/kg/injection, schedule: Q01DX009 (ip), vehicle: saline 90 % of control | [13] 101 % of control | dose: 200.0 mg/kg/injection, schedule: Q01DX009 (ip), vehicle: saline 90 % of control | [15] 101 % of control | [16] 101 % of control

Cc1ccc(NC(=O)C(Cl)(Cl)Cl)cc1[N+](=O)[O-]
inactive: [1] 94 % of control | [2] 100 % of control | [3] 104 % of control

CSc1cccc(NC(=O)NCCCl)c1
inactive: [21] 104 % of control | [22] 103 % of control | [23] 93 % of control

C=C(C)C1CCCC(Cc2cccc3c(Cl)cccc23)C1 (centres undefined)
inactive: dose: 100.0 mg/kg/injection, schedule: Q01DX001 (ip), vehicle: gum acacia 97 % of control | dose: 200.0 mg/kg/injection, schedule: Q01DX001 (ip), vehicle: gum acacia 94 % of control | dose: 400.0 mg/kg/injection, schedule: Q01DX001 (ip), vehicle: gum acacia 99 % of control

COc1ccc(C(=O)C=C(C(F)(F)F)C(F)(F)F)cc1
inactive: [11] 93 % of control | dose: 50.0 mg/kg/injection, schedule: Q04DX003 (ip), vehicle: saline with Tween-80 102 % of control | [8] 100 % of control and 102 % of control

C=C(Br)CNC(=O)OCC
inactive: [17] 96 % of control | [13] 115 % of control | [15] 107 % of control

COc1ccc(Sc2cccc3c2C(C)(O)c2c(Sc4ccc(OC)cc4)cccc2C3(C)O)cc1 (centres undefined)
inactive: [1] 100 % of control | [8] 97 % of control | [2] 92 % of control | [9] 95 % of control | [3] 92 % of control | [10] 93 % of control

COC(=O)/C=C(\C)Nc1ccc(Cc2ccc(NC(C)=O)cc2)cc1
inactive: [12] 95 % of control | [14] 98 % of control

COc1cc(OC)c(OC)cc1/C=C\c1ccnc2ccccc12
inactive: [4] 105 % of control | [18] 98 % of control | [5] 100 % of control | [19] 108 % of control | [22] 108 % of control | [6] 109 % of control | [20] 114 % of control | [23] 108 % of control | dose: 800.0 mg/kg/injection, schedule: Q01DX009 (ip), vehicle: Klucel (hydroxypropylcellulose) (HPC) 112 % of control | dose: 800.0 mg/kg/injection, schedule: Q04DX003 (ip), vehicle: Klucel (hydroxypropylcellulose) (HPC) 110 % of control | dose: 1600.0 mg/kg/injection, schedule: Q04DX003 (ip), vehicle: Klucel (hydroxypropylcellulose) (HPC) 108 % of control

O=C(Cl)c1cc(Cl)nc2c(Cl)cc(Cl)cc12
inactive: dose: 75.0 mg/kg/injection, schedule: Q01DX001 (ip), vehicle: saline 86 % of control | dose: 150.0 mg/kg/injection, schedule: Q01DX001 (ip), vehicle: saline 94 % of control | dose: 300.0 mg/kg/injection, schedule: Q01DX001 (ip), vehicle: saline 90 % of control
